Some test systems named below: SK-MEL-2; ACHN; SF-268; EKVX; LOX IMVI; NCI-H23; SN12C; M14; A549; BT-549; HT-29; UACC-62; CCRF-CEM; SK-MEL-5; OVCAR-8; RPMI-8226; Malme-3M; HL-60; Hs-578T; CAKI-1.
Experiment in all cases: inhibition of tumour cell growth, NCI panel, 48 h

SMILES strings stand for the structures.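 Results reflect a 48-hour exposure of cells in 96-well plates to compound at five concentrations. GI50 is the concentration that inhibits growth by half.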 Activity calls are given as the source filed them. No stated cut-off is given here; in the data, active = GI50 up to about 1.1 µM and inactive = higher. Some results are limits rather than exact numbers.

In the case of `O=C1CCc2cc([N+](=O)[O-])ccc2O1`, the GI50 in the assay on SK-MEL-2, in the assay on ACHN, in the assay with SF-268, in the assay with EKVX, in the assay on LOX IMVI and with NCI-H23 was > 100 µM (inactive) in each case. The GI50 in the assay with SN12C, in the assay on M14, with A549, in the assay with BT-549, in the assay with HT-29 and in the assay with UACC-62 was > 100 µM (inactive) throughout. The GI50 in the assay with CCRF-CEM, in the assay with SK-MEL-5, in the assay with OVCAR-8, with RPMI-8226, in the assay on Malme-3M and in the assay on HL-60 was > 100 µM (inactive) each time. Also, the GI50 in the assay on Hs-578T and with CAKI-1 was > 100 µM (inactive) in each case.
As to `CN[C@H]1CC[C@]23C[C@]24CC[C@]2(C)[C@@H]([C@H](C)N(C)C)CC[C@@]2(C)[C@@H]4CC[C@H]3C1(C)C`, the GI50 with SK-MEL-2 was 18 µM (inactive); with ACHN, 15.6 µM (inactive); in the assay on SF-268 it was 14.4 µM (inactive); in the assay on EKVX, 18.2 µM (inactive); in the assay with LOX IMVI, 5.32 µM (inactive); in the assay with NCI-H23, 15.7 µM (inactive). Also, the GI50 with SN12C was 14.3 µM (inactive); with M14, 12.2 µM (inactive); in the assay on A549 it was 17.4 µM (inactive); in the assay on BT-549, 12.7 µM (inactive); in the assay on HT-29, 2.85 µM (inactive); in the assay on UACC-62, 15.8 µM (inactive). The GI50 in the assay on CCRF-CEM is 15.1 µM (inactive); with SK-MEL-5, 15.1 µM (inactive); in the assay on OVCAR-8, 17.3 µM (inactive); in the assay with RPMI-8226, 12.9 µM (inactive); in the assay on Malme-3M, 17.1 µM (inactive); with HL-60, 10.8 µM (inactive). Further, the GI50 with Hs-578T is 16.8 µM (inactive); in the assay with CAKI-1, 21.9 µM (inactive).
On to `CC(C)=CC[C@]12CCN(C)[C@H]1N(S(=O)(=O)c1ccccc1)c1ccccc12`, for which the GI50 in the assay on SK-MEL-2 is 15.5 µM (inactive); in the assay with ACHN, > 54.2 µM (inactive); in the assay with SF-268 it was > 44.6 µM (inactive); in the assay with EKVX, > 24.2 µM (inactive); in the assay with LOX IMVI it was > 37.1 µM (inactive); with NCI-H23 it was > 19.9 µM (inactive). In addition, the GI50 in the assay on SN12C was > 62.2 µM (inactive); with BT-549, > 56.5 µM (inactive); in the assay on HT-29 it was > 46.5 µM (inactive); in the assay with UACC-62 it was > 35.6 µM (inactive); in the assay on CCRF-CEM it was > 50.7 µM (inactive); with SK-MEL-5, 11.9 µM (inactive). In addition, the GI50 in the assay with OVCAR-8 was > 64 µM (inactive); in the assay on RPMI-8226, 29.9 µM (inactive); in the assay with Malme-3M, > 49.2 µM (inactive); in the assay with HL-60, 28.4 µM (inactive); in the assay with Hs-578T, > 45.4 µM (inactive); with CAKI-1 it was > 25.6 µM (inactive).
`O=c1c(Br)c(-c2ccccc2)[s+]([O-])c2ccccc12` (stereo not given): the GI50 was 18.4 µM (inactive) in the assay on SK-MEL-2; 2.52 µM (inactive) in the assay with ACHN; 16.4 µM (inactive) in the assay on SF-268; 16.4 µM (inactive) in the assay on EKVX; 11.8 µM (inactive) in the assay with LOX IMVI; 16 µM (inactive) with NCI-H23. Besides, the GI50 is 15.6 µM (inactive) in the assay with SN12C; 12.9 µM (inactive) in the assay with M14; 24.2 µM (inactive) with A549; 17.9 µM (inactive) in the assay on BT-549; 13.2 µM (inactive) with HT-29; 13.7 µM (inactive) in the assay with UACC-62. Besides, the GI50 with CCRF-CEM is 0.861 µM (active); in the assay with SK-MEL-5 it was 11.5 µM (inactive); in the assay on OVCAR-8, 4.6 µM (inactive); in the assay with RPMI-8226, 1.61 µM (inactive); in the assay with Malme-3M it was 10.4 µM (inactive); with HL-60, 2.11 µM (inactive). In addition, the results for the GI50 in the assay on Hs-578T and in the assay on CAKI-1 were 25.1 µM (inactive) and 9.12 µM (inactive), respectively.
In the case of `CCC1=C(CC2NCCc3ccccc32)CC2c3cc(OC)c(OC)cc3CCN2C1` (stereo not given), the GI50 in the assay on SK-MEL-2 was 0.603 µM (active); with ACHN, 0.367 µM (active); in the assay on SF-268, 0.719 µM (active); in the assay with EKVX, 0.305 µM (active); with LOX IMVI, 0.359 µM (active); in the assay with NCI-H23, 0.94 µM (active). In addition, the GI50 in the assay with SN12C was 0.5 µM (active); with M14 it was 0.502 µM (active); in the assay on A549 it was 0.343 µM (active); with BT-549, 2.14 µM (inactive); with HT-29, 0.284 µM (active); with UACC-62 it was 1.29 µM (inactive). Besides, the GI50 in the assay on CCRF-CEM is 0.357 µM (active); with SK-MEL-5, 0.585 µM (active); in the assay with OVCAR-8 it was 0.445 µM (active); in the assay with RPMI-8226 it was 0.392 µM (active); in the assay on Malme-3M, 0.603 µM (active); in the assay on HL-60 it was 0.847 µM (active). Besides, the GI50 with Hs-578T was 0.44 µM (active); in the assay with CAKI-1, 0.473 µM (active).
As for `CCCc1cc(=O)oc2c(C=O)c(O)cc(O)c12`, the GI50 in the assay on SK-MEL-2 is 18.2 µM (inactive); with ACHN, 26.5 µM (inactive); in the assay with SF-268, 26.6 µM (inactive); with EKVX, 21.3 µM (inactive); in the assay with LOX IMVI, 20 µM (inactive); with NCI-H23, 20.3 µM (inactive). The GI50 with SN12C was 24.9 µM (inactive); in the assay on M14, 22.8 µM (inactive); in the assay with A549 it was 31.7 µM (inactive); in the assay on BT-549, 25.1 µM (inactive); in the assay on HT-29, 22.1 µM (inactive); in the assay with UACC-62, 19.8 µM (inactive). Also, the GI50 in the assay with CCRF-CEM was 22.8 µM (inactive); in the assay with SK-MEL-5, 17.4 µM (inactive); in the assay with OVCAR-8 it was 22 µM (inactive); with RPMI-8226, 28 µM (inactive); in the assay with Malme-3M it was 18.5 µM (inactive); with HL-60, 18.3 µM (inactive). Also, the values for the GI50 in the assay with Hs-578T and in the assay on CAKI-1 were 22.6 µM (inactive) and 27 µM (inactive), respectively.
On to `CCOC(=O)CCN1C(=O)c2ccc(NC(=O)C(=O)O)cc2S1(=O)=O`, for which the GI50 with SK-MEL-2, with ACHN, in the assay with EKVX, in the assay on LOX IMVI, in the assay with NCI-H23 and with SN12C was > 100 µM (inactive) in each case. Further, the GI50 in the assay on M14, with A549, with BT-549, in the assay with HT-29, in the assay on UACC-62 and in the assay with CCRF-CEM was > 100 µM (inactive) each time. For the same compound, the GI50 with SK-MEL-5, with OVCAR-8, in the assay on RPMI-8226, in the assay on Malme-3M, in the assay on HL-60 and in the assay on Hs-578T was > 100 µM (inactive) throughout. Also, the GI50 with CAKI-1 was > 100 µM (inactive).
On to `c1ccc(C2=Nc3nc4ccccc4n3C(c3ccccc3)C2)cc1` (stereo not given), for which the GI50 in the assay with SK-MEL-2, with ACHN, with SF-268, with EKVX, in the assay with LOX IMVI and in the assay with NCI-H23 was > 100 µM (inactive) throughout. The GI50 in the assay on M14, with A549, in the assay on BT-549, with HT-29, in the assay with UACC-62 and with CCRF-CEM was > 100 µM (inactive) throughout. The GI50 with SK-MEL-5 is > 100 µM (inactive); with OVCAR-8, > 100 µM (inactive); with RPMI-8226, > 100 µM (inactive); in the assay on Malme-3M, > 100 µM (inactive); in the assay on HL-60, > 100 µM (inactive); in the assay on Hs-578T, 45.5 µM (inactive). Moreover, the GI50 with CAKI-1 was > 100 µM (inactive).
Regarding `CC(C)=CCN1c2ccccc2NC(=O)CC1C` (stereo not given), the GI50 was > 100 µM (inactive) with SK-MEL-2; 71.1 µM (inactive) with ACHN; > 100 µM (inactive) in the assay on SF-268; 51.3 µM (inactive) in the assay with EKVX; > 100 µM (inactive) in the assay on LOX IMVI; > 100 µM (inactive) in the assay with NCI-H23. The GI50 in the assay on SN12C is 33.3 µM (inactive); in the assay with M14, > 100 µM (inactive); in the assay with A549 it was > 100 µM (inactive); in the assay on BT-549, 22.7 µM (inactive); in the assay with HT-29, > 100 µM (inactive); in the assay on CCRF-CEM it was > 100 µM (inactive). Further, the GI50 in the assay on SK-MEL-5 is 29.3 µM (inactive); with OVCAR-8 it was > 100 µM (inactive); with RPMI-8226, > 100 µM (inactive); in the assay on Malme-3M, > 100 µM (inactive); in the assay on HL-60, 61.2 µM (inactive); in the assay on Hs-578T, > 100 µM (inactive). For the same compound, in the assay with CAKI-1, the GI50 was > 100 µM (inactive).
For the compound `O=c1c2ccccc2n2nnc3ccc(NCCNCCO)c1c32`, the GI50 in the assay on SK-MEL-2 was 3.19 µM (inactive); in the assay on ACHN, 0.824 µM (active); with SF-268, 1.71 µM (inactive); with EKVX it was 2.08 µM (inactive); with LOX IMVI it was 1.18 µM (inactive); with NCI-H23, 2.31 µM (inactive). Further, the GI50 in the assay with SN12C is 1.43 µM (inactive); in the assay on M14, 1.91 µM (inactive); in the assay on A549, 1.16 µM (inactive); with BT-549 it was 2.02 µM (inactive); in the assay on HT-29, 0.74 µM (active); in the assay on UACC-62, 2.42 µM (inactive). For the same compound, the GI50 in the assay on CCRF-CEM is 0.948 µM (active); with SK-MEL-5, 1.53 µM (inactive); in the assay on OVCAR-8 it was 0.908 µM (active); with RPMI-8226, 1.82 µM (inactive); in the assay with Malme-3M, 1.87 µM (inactive); in the assay on HL-60, 1.71 µM (inactive). Besides, the figures for the GI50 in the assay on Hs-578T and in the assay on CAKI-1 were 2.03 µM (inactive) and 1.84 µM (inactive), respectively.
